From publication PMC8861431, “Tissue Pharmacokinetic Properties and Bystander Potential of Hypoxia-Activated Prodrug CP-506 by Agent-Based Modelling” (Frontiers in Pharmacology, 2022)
Values joined by “and” are separate entries in the source; they are usually repeats but may differ in a detail not shown here. Identical values can stand only once. Like-named read-outs stand apart in the source and are kept apart here.

Columns and labels:
[1] = test system: POR-R cell line (POR-overexpressing HCT-116); experiment: Monolayer clonogenic assay (with monolayer ABM fit); assay type: cell-based, human; details: for k d M: kill probability rate constant in monolayer cultures: fitted by monolayer ABM to clonogenic survival under anoxia, set to zero for the prodrug, same kd assumed for metabolites
Procedure: (§1) Cells (4.8 x 10^5 cells) were seeded with 2 ml culture medium into 6-well plates and left to attach for 2 h in a humidified 37°C incubator. Compounds were then prepared in culture medium and added in a 500 µl volume to each well. Plates were returned to a humidified 37°C incubator for the duration of the drug exposure (4 h). Aerobic and anoxic experiments were performed as described above. Plates were then removed from the anaerobic chamber and processed alongside the aerobic cultures. Cells were detached from monolayer by trypsinisation and plated at serial dilutions in 6-well plates. Cells were left to grow in a standard 37°C incubator for 10 days until the controls formed discrete colonies comprised of at least 50 cells. Colonies were visualized by staining with methylene blue (2 g/L in 50% aqueous ethanol) for 30 min. The number of colonies with at least 50 cells was manually counted to determine the plating efficiency. The surviving fraction was determined as the ratio of plating efficiency of treated cells to that of the controls.
(§2) An agent-based model (ABM) employing a one-dimensional approximation for monolayers was used to develop a cellular PK model, as described in further detail elsewhere ([Hong et al., 2018b]; [Mao et al., 2018]). The mathematical framework assumes that solute concentrations in the medium are dependent only on the depth (on the z coordinate) and not the lateral position (x,y) so that all cells are exposed to the same concentration of nutrients and drugs within the monolayer culture. Moreover, all cells have the same rate of metabolism and volume growth at any instance with variability allowed in cell volume, rate of cell division and cell death. Monolayer ABM simulations were performed on a desktop Windows PC (Intel core I7 processor) from a Qt (Qt Company, https://www.qt.io/) graphical user interface passing parameters to a DLL built with Fortran95. The monolayer ABM uses a finite difference method to solve reaction-diffusion equations for each compound (N) in the medium and cells. Parameters for the cellular uptake and metabolism were fitted to the concentration-time profiles of CP-506 and its metabolites in monolayer cultures of POR-R cells using a linear (first order) cell transport and metabolism model. Terms for the extracellular instability of CP-506 and its metabolites were set at their respective values in media stability studies, and media diffusion coefficients were estimated from the support membrane diffusion coefficients described below. Experimental data describing the kinetics of CP-506 uptake under aerobic conditions was fitted by adjusting the permeability coefficients kin and kout for each compound. These values were fixed for anoxic experiments to allow for parameter estimation of the rate of intracellular CP-506 metabolism (kmet0) as well as the intracellular/extracellular partitioning ratio (kin and kout) and metabolic instability (kmet0) for its cytotoxic metabolites.
(§3) The spheroid ABM is described in further detail elsewhere ([Hong et al., 2018b]; [Mao et al., 2018]). The model employs two 3D grids and two solvers, a coarse grid represents the culture medium and is embedded with a much finer grid that represents the spheroid in a small cubic region at the bottom of the well. The spheroid grows in a specified volume and depth of unstirred medium containing dissolved oxygen. The geometry of the model is lattice-based, in which cells occupy cubic sites on a regular 3D lattice and grow in volume at a rate dependent on the local oxygen concentration. Autonomous cell mobility and cell-cell forces are not simulated. Cell motion occurs only as a result of cell division. Cells divide when the volume reaches a pre-set value (Vdiv) and the resultant daughter cell occupies an adjacent empty lattice site. […] The oxygen concentration at the air-medium boundary is defined by the gas phase of the culture environment. […]

[2] = test system: PORko-G cell line (POR-knockout HCT-116); experiment: as above; assay type: cell-based, human
Procedure: as §1, §2, §3

[3] = test system: HCT-116 cells (PORko-G, HCT-116 WT, POR-R); experiment: Cellular metabolism assay (LC-MS/MS of reduced metabolites); assay type: in vitro ADME, human; details: for Metabolite concentration, fold lower in PORko-G cells than HCT-116 WT cells / Metabolite concentration, fold higher in POR-R cells than HCT-116 WT cells: after 1 h treatment with 100 µM CP-506, anoxic
Procedure: Aerobic and anoxic conditions were achieved as described above. Cells (5 x 10^5 per well) were seeded with 350 µl medium in duplicate into 24-well plates and left to attach for 2 h in a humidified 37°C incubator. A working solution of CP-506 was prepared in culture medium to achieve a 100 µM concentration in each well after the addition of a 500 µl volume. Plates were exposed to drug for 1 h in a humidified 37°C incubator. Metabolism was then halted by the addition of two-volumes of ice-cold acetonitrile containing 2 µM of internal standard for each analyte. Samples were stored at −80°C until LC-MS/MS analysis.
(§4) The LC system for tandem MS consisted of an Agilent 1200 autosampler (4°C) and binary pump, a 3.0 × 50 mm, 1.8-micron Zorbax SB-C18 column (Agilent; PN: 827975-302) and 2.1 × 7 mm guard column (Alltech, IL) maintained at 35°C, at a pressure of <400 bar and flow rate of 0.3 ml/min. The mobile phase comprised a gradient of 0.01% formic acid in 80% acetonitrile - 20% water, v/v (solvent A), and 0.01% formic acid in water (solvent B). Initial mobile phase composition was 20% solvent A and 80% solvent B, increasing to 60% A (0–3 min) then 80% A (3–5.45 min), returning to initial conditions (5.5–6 min). Post-run time was 1 min, and the total run time was […]. Mass spectrometric detection was carried out using an Agilent 6410 triple quadrupole mass spectrometer equipped with a multimode ionization (MMI) source. The mass spectrometer was operated in electrospray positive ionization mode using multiple reaction monitoring (MRM), with Q1 & Q3 set to unit resolution ([…]). The electrospray ionization parameters, optimized for the parent molecular ion ([M+H]+) abundance were: drying gas temperature 325°C, vaporiser temperature 150°C, drying gas flow 5 L/min, nebuliser pressure 50 psi, capillary voltage 1.8 kV, Delta EMV 300 V. Ultra-pure nitrogen was used as collision gas. The divert valve feature of the Agilent 6410 triple quadrupole mass spectrometer was utilised to prevent the eluate from entering the ionisation source chamber during the first 0.5 min of each run. For CP-506 samples, positively charged ions representing the [M+H]+ for CP-506 and CP-506-D8 were collisionally dissociated to form specific product ions which were monitored in MS2 (unit resolution). The MRM transition, ionization mode, collision energy, dwell time, fragmentor voltage and retention time for all compounds is provided in Supplementary Table S2. Agilent MassHunter software (v.4.04.00) was used for data acquisition and chromatographic peak integration.

[4] = Media stability studies (stirred medium without serum, 37°C); assay type: physicochemical
Procedure: The stability of each compound was determined in stirred medium (without serum) maintained under aerobic conditions by the constant supply of a humidified gas mixture comprised of 21% O2, 5% CO2 with balance N2. Vials were spiked with 100 µM of the relevant compound, and samples were collected using a positive displacement pipettor for up to 3 h thereafter. The collected samples were then treated with two-volumes of ice-cold acetonitrile containing 2 µM of the relevant deuterated (D8) internal standard and stored at −80°C until LC-MS/MS analysis.
as §4

[5] = anoxia, estimated from clonogenic survival by ABM
[6] = 37°C, aerobic, medium without serum/cells, 100 µM, read-out: Half-life (T1/2) in stirred medium
[7] = buffer, Table 1, stirred culture medium at 37°C, read-out: Half-life: time required to reduce the concentration of drug to half of its initial value (converted)

With `CCN1CCN(C(=O)c2cc(N(CCBr)CCOS(C)(=O)=O)c(S(C)(=O)=O)cc2N)CC1` [CP-506M, 2-((4-amino-5-(4-ethylpiperazine-1-carbonyl)-2-(methylsulfonyl)phenyl)(2-bromoethyl)amino)ethyl methanesulfonate] the “k d M: kill probability rate constant in monolayer cultures” value (“k d M: kill probability rate constant” for short) [1] was 0.01, the “Target k met0: rate constant for the maximum rate of metabolism in PORko-G cells under anoxia” value (shortened to “Target k met0: rate constant”) [2, 5] was 0.1 min⁻¹ and the “Metabolite concentration, fold lower in PORko-G cells than HCT-116 WT cells” value [3] was 4.1 fold. For the same compound, the half-life at 100 µM [4, 6] was 7.6 min and the half-life at 100 µM [4, 7] was 7.8 min.

With `CCN1CCN(C(=O)c2cc(N(CCBr)CCOS(C)(=O)=O)c(S(C)(=O)=O)cc2NO)CC1` [CP-506H, 2-((2-bromoethyl)(5-(4-ethylpiperazine-1-carbonyl)-4-(hydroxyamino)-2-(methylsulfonyl)phenyl)amino)ethyl methanesulfonate] the “k d M: kill probability rate constant” value [1] was 0.01, the “Target k met0: rate constant” value [2, 5] was 0.09 min⁻¹ and the “Metabolite concentration, fold higher in POR-R cells than HCT-116 WT cells” value [3] was 5.5 fold. It also gave a half-life at 100 µM [4, 6] of 10.5 min and a half-life at 100 µM [4, 7] of 10.8 min.

With `CCN1CCN(C(=O)c2cc(N(CCBr)CCOS(C)(=O)=O)c(S(C)(=O)=O)cc2[N+](=O)[O-])CC1` [CP-506, 2-[(2-bromoethyl)-5-[(4-ethyl-1-piperazinyl)carbonyl]-2-(methylsulfonyl)-4-nitroanilino]ethyl methanesulfonate] the IC50 ([1]; Homo sapiens, HCT-116, POR-R monolayer, 4 h exposure, <1 ppm O2, read-out: Clonogenic IC50 under anoxia) was 0.8 ± 0.3 µM, the “k d M: kill probability rate constant” value [1] was 0 and the IC50 ([2]; Homo sapiens, HCT-116, PORko-G monolayer, 4 h exposure, <1 ppm O2, read-out: Clonogenic IC50 under anoxia) was 17.1 ± 3.4 µM. For the same compound, the “Target k met0: rate constant” value [2, 5] was 0.0019 min⁻¹, the “Differential in anoxic sensitivity between PORko-G and POR-R cell lines” value ([2]; monolayer clonogenic endpoint, anoxia) was 22 fold and 20 fold and the “Time without loss of mass balance in stirred medium” value ([4]; 37°C, aerobic, stirred medium) was “over 360 min”. It also gave a half-life at 100 µM [4, 7] of 1800 min.

In the case of `CCN1CCN(C(=O)c2cc(N(CCCl)CCCl)c(S(C)(=O)=O)cc2N)CC1` [CP-506M-Cl2, (2-Amino-5-(bis(2-chloroethyl)amino)-4-(methylsulfonyl)phenyl)(4-ethylpiperazin-1-yl)methanone], the “k d M: kill probability rate constant” value [1] is reported as 0.01, the “Target k met0: rate constant” value ([2]; anoxia, footnote d: assumed equivalent to the measured metabolites or from published PR-104A estimates) is reported as 0.1 ^d min^−1 and the “Metabolite concentration, fold higher in POR-R cells than HCT-116 WT cells” value [3] is reported as 8.6 fold. The “Metabolite concentration, fold lower in PORko-G cells than HCT-116 WT cells” value [3] was 17.7 fold, the “Metabolite production suppressed in POR knockout relative to the POR-overexpressing cell line” value ([3]; anoxic, Figure 3A) was 151 fold and the “Half-life (T1/2) in stirred medium” value ([4]; 37°C, aerobic, medium without serum/cells, 100 µM) was 271 min. The half-life at 100 µM [4, 6] was 271 min, the half-life at 100 µM [4, 7] was 271 min and the “Fold longer half-life than CP-506H or CP-506M” value ([4]; stirred medium, Figure 3B) was no less than 10 fold.
